In patent US20080214560A1, “Use of Pyrimidine Derivatives in the Manufacture of a Medicament for Prevention and/or Treatment of Alzheimer's Disease” (AstraZeneca AB, priority 2005, published 2008):
Where a name gives a salt, the structure may show the parent alone.

Biological target: T1, recombinant human GSK3β (Homo sapiens, UniProt P49841)
T1 construct: purchased Dundee University, UK
Assay: GSK3β Scintillation Proximity Assay (ATP competition)
Format: biochemical
Details: SPA, 1 μM ATP, Km of ATP 20 μM used to calculate Ki
Description: Determination of ATP Competition in Scintillation Proximity GSK3β Assay.
GSK3β Scintillation Proximity Assay.
The competition experiments were carried out in duplicate with 10 different concentrations of the inhibitors in clear-bottom microtiter plates (Wallac, Finland). A biotinylated peptide substrate, Biotin-Ala-Ala-Glu-Glu-Leu-Asp-Ser-Arg-Ala-Gly-Ser(PO3H2)-Pro-Gln-Leu (AstraZeneca, Lund), was added at a final concentration of 1 μM in an assay buffer containing 1 mU recombinant human GSK3β (Dundee University, UK), 12 mM morpholinepropanesulfonic acid (MOPS), pH 7.0, 0.3 mM EDTA, 0.01% β-mercaptorethanol, 0.004% Brij 35 (a […] detergent), 0.5% glycerol and 0.5 μg BSA/25 μl. The reaction was initiated by the addition of 0.04 μCi [γ-^33P]ATP (Amersham, UK) and unlabelled ATP at a final concentration of 1 μM and assay volume of 25 μL. After incubation for 20 minutes at room temperature, each reaction was terminated by the addition of 25 μl stop solution containing 5 mM EDTA, 50 μM ATP, 0.1% Triton X-100 and 0.25 mg streptavidin coated Scintillation Proximity Assay (SPA) beads (Amersham, UK). After 6 hours the radioactivity was determined in a liquid scintillation counter (1450 MicroBeta Trilux, Wallac). The inhibition curves were analysed by non-linear regression using GraphPad Prism, USA. The Km value of ATP for GSK3β, used to calculate the inhibition constants (Ki) of the various compounds, was 20 μM.

T1 sequence (P49841 whole entry): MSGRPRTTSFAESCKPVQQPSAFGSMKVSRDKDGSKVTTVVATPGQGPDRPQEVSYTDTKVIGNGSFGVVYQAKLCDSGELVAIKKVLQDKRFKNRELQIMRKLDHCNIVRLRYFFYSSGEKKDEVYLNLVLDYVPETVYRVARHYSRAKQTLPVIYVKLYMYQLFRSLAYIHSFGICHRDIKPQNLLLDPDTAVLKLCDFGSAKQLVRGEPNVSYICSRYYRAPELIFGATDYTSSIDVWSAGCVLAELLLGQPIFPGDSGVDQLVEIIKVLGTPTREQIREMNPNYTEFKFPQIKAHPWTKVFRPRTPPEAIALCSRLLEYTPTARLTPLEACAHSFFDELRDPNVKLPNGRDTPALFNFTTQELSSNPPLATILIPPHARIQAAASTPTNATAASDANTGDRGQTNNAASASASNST

| Compound | Ki [µM] |
| --- | --- |
| Cc1ncc(-c2nc(Nc3ccc(C(=O)N4CCN(C)CC4)cc3)ncc2F)n1C(C)C [Example 13, 5-Fluoro-4-(1-isopropyl-2-methyl-1H-imidazol-5-yl)-N-{4-[(4-methylpiperazin-1-yl)carbonyl]phenyl}pyrimidin-2-amine hydrochloride] | 0.0038 |
| COc1cc(Nc2ncc(F)c(-c3cnc(C)n3C(C)C)n2)ccc1C(=O)N1CCN(C)CC1 [Example 11, 5-Fluoro-4-(1-isopropyl-2-methyl-1H-imidazol-5-yl)-N-{3-methoxy-4-[(4-methylpiperazin-1-yl)carbonyl]phenyl}pyrimidin-2-amine hydrochloride] | 0.025 |
| Cc1ncc(-c2nc(Nc3ccc(C(=O)c4ccccn4)cc3)ncc2F)n1C(C)C [Example 2, (4-{[5-Fluoro-4-(1-isopropyl-2-methyl-1H-imidazol-5-yl)pyrimidin-2-yl]amino}phenyl)(pyridin-2-yl)methanone hydrochloride] | 0.0013 |
| Cc1cc(S(=O)(=O)N2CCN(C)CC2)ccc1Nc1ncc(F)c(-c2cnc(C)n2C(C)C)n1 [Example 5, 5-Fluoro-4-(1-isopropyl-2-methyl-1H-imidazol-5-yl)-N-{2-methyl-4-[(4-methylpiperazin-1-yl)sulfonyl]phenyl}pyrimidin-2-amine hydrochloride] | 0.024 |
